Laboratory results from article PMC8304783, “Antiadhesive Properties of Imidazolium Ionic Liquids Based on (−)-Menthol Against Candida spp” (International Journal of Molecular Sciences, 2021).

Experiments:
Format in all cases: cell-based
C. albicans isolates = test: Detachment of adherent clinical isolates from polystyrene (isolates taken together); settings: in most cases, 1, 2 and 4 times MIC90
Experimental: (§1) Post-adherence treatment with ILs was performed in a similar manner to that described previously by our team. Candida spp. suspensions were prepared by centrifuging YPD-grown cultures and resuspending fungal mass in PBS to an OD600 = 0.6. Sterile 96-well plates were inoculated with the prepared suspensions and incubated for 2 h at 37 °C to induce fungal adhesion. Afterwards, adherent cells were washed with PBS to remove planktonic cells and treated with ILs (concentrations equivalent to 1, 2 or 4 × MIC90 for each fungi) for 2 h at 37 °C. Then, each well was washed with PBS and adherent cells were fixed with 0.1% CV solution for 5 min, and washed with PBS. Cells were then treated with a solution of isopropanol 0.04 N HCL with 0.1% SDS to permeabilize adherent cells and release the CV dye. The absorbance of CV was measured at 590 nm (ASYS UVM 340 Biogenet). The percentage of cells that were removed was determined in comparison to adherent cells treated with PBS only (designated 100% adhesion).
(§2) The effect of imidazolium ILs based on of (1R,2S,5R)‐(−)‐menthol was evaluated on clinical, fluconazole(FLC)‐resistant and FLC‐sensitive C. albicans isolates. C. albicans Gu4 and Gu5 strains were isolated from a patient before and after fluconazole administration, respectively.
(§3) Azole‐resistance of Gu5 origins in overexpression of CDR1 and CD R2. C. albicans B3 and B4 strains […]

C. albicans B3 = test: Detachment of adherent clinical isolates from polystyrene; settings: isolate B3 on polystyrene; highest concentration (4 x MIC)
Experimental: as §1, §2, §3
(§4) Azole‐resistance of B4 results from overexpression of MDR1. The strains were generous gifts from Prof. S. Milewski (Gdańsk, Poland) and Prof. J. Morschhäuser (Wurzburg, Germany). They are originally referenced in: Franz, R., Ruhnke, M. & Morschhäuser, J. Molecular aspects of fluconazole resistance development in Candida albicans. Mycoses 42, 453–458, (1999).
(§5) Table S1 summarizes the minimal inhibitory and fungicidal concentration (MIC90 and MFC, respectively) values of ILs tested against the C. albicans isolates (for ILs structures see section 5.2. in the mai n text). No difference in case of MIC90 values between the strains was observed. […]

C. albicans B4 = test: as above; settings: isolate B4 on polystyrene; highest concentration (4 x MIC)
Experimental: as §1, §2, §3, §4, §5

C. albicans Gu4 = test: as above; settings: isolate Gu4 on polystyrene; regardless of the concentration (1, 2, 4 x MIC)
Experimental: as §1, §2, §3, §4, §5

SMILES | Influence on adherent properties of C. albicans isolates (C. albicans isolates) | Reduction of adhesion (C. albicans B3) | Reduction of adhesion (C. albicans B4) | Reduction of adhesion (C. albicans Gu4)
CCCCCCCCCn1cc[n+](CO[C@@H]2C[C@H](C)CC[C@H]2C(C)C)c1 [1a, 1-[(1R,2S,5R)-(−)-menthoxymethyl]-3-nonylimidazolium chloride] | did not influence | – | – | –
CCCCCCCCCCn1cc[n+](CO[C@@H]2C[C@H](C)CC[C@H]2C(C)C)c1 [1b, 3-decyl-1-[(1R,2S,5R)-(−)-menthoxymethyl]imidazolium chloride] | – | ~ 10% | ~ 10% | ~ 20%
